# Where “and” joins values, the source holds several entries; their conditions need not be identical. Identical values can stand only once. Calls of active or inactive are those of the source.
# Tests used:
# Cytochrome P450 2C9 = Cytochrome P450 2C9 (Homo sapiens, UniProt P11712)
# [1] = biological target: T1, Heat shock factor protein 1 (Mus musculus, UniProt P38532); test: decrease of HSF1-responsive luciferase luminescence – cell-based, NIH3T3, dose retest, confirmation (AID 2382); assay type: functional;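 note: NIH3T3 fibroblasts with HSF1-driven luciferase reporter stressed by proteasome inhibitor MG132; luminescence from HSF1-driven luciferase expression after 8 hours of MG132 stress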
# T1 sequence (P38532 whole entry): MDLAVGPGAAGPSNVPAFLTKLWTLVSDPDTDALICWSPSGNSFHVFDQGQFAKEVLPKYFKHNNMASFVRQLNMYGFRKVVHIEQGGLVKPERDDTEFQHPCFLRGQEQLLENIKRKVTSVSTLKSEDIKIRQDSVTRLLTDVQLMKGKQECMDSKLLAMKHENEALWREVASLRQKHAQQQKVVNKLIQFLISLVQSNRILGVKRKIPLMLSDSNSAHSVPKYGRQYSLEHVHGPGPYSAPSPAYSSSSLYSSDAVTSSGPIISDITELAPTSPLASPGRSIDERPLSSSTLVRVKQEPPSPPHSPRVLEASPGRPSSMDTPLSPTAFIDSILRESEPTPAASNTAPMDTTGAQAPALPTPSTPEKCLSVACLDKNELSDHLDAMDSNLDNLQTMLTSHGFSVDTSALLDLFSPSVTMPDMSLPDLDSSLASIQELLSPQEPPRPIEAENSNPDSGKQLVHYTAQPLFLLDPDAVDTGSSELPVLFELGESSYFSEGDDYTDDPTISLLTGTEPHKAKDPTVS
# Cytochrome P450 3A4 = Cytochrome P450 3A4 (Homo sapiens, UniProt P08684);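 note: CYP3A4 tested as one member of a cytochrome P450 panel screen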
# [2] = system: Streptococcus sp. 'group A'; test: Streptococcus pyogenes SK(-)GAS viability under kanamycin – luminescence, BacTiterGlo, confirmation, counter-screen for streptokinase expression inhibitor project, dose response (AID 1900); assay type: functional, organism-based
# Streptokinase A = biological target: T2, Streptokinase A (Streptococcus pyogenes serotype M1, UniProt P10520); test: viability-normalized secreted streptokinase activity reduction – plasminogen activation absorbance, OD405, dose response (AID 1914); assay type: functional, Streptococcus pyogenes M1 GAS;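 note: secreted streptokinase activity via plasminogen activation per viability signal from cell pellet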
# T2 sequence (P10520 whole entry): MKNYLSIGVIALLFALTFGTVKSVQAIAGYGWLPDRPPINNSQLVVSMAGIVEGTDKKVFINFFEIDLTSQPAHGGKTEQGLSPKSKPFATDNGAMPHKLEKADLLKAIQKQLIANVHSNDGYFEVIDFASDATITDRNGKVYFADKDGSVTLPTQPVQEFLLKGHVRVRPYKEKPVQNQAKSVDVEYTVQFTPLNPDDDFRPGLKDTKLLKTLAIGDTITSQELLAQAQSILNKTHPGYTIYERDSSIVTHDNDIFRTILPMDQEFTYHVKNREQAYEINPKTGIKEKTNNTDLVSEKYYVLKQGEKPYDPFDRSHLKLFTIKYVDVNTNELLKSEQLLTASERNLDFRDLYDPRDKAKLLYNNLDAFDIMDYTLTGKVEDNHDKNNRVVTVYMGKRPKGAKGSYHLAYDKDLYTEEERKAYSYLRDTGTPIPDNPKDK
# Streptococcus = test: GAS UMAA2166 growth inhibition – luminescence, BacTiterGlo, counter-screen for streptokinase expression inhibitor project, dose response (AID 1915); assay type: functional, organism-based;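 note: potency for reduction of bacterial viability or growth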
# Cytochrome P450 2C19 = Cytochrome P450 2C19 (Homo sapiens, UniProt P33261); test: Cytochrome panel assay with activity outcomes. Panel member name: p450-cyp2c19 Compounds with AC50 equal or less than 10 uM are considered active; assay type: functional
# [3] = Trypanosoma cruzi growth suppression in host cells – NIH3T3 host cells, beta-gal luminescence, confirmation (AID 2044); assay type: functional, cell-based;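 note: intracellular parasites grown in NIH/3T3 mouse fibroblasts as host cells; luminescent beta-galactosidase reporter signal from transgenic T. cruzi replicating inside host cells; inhibitors lower the luminescence signal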
# [4] = NIH3T3 cell viability loss – ATP luminescence, mouse fibroblasts, counter-screen, dose response (AID 2010); assay type: functional, cell-based;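 note: cells exposed to compound for about 90 hours before reading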
# Cytochrome P450 2C19, sequence (P33261 whole entry): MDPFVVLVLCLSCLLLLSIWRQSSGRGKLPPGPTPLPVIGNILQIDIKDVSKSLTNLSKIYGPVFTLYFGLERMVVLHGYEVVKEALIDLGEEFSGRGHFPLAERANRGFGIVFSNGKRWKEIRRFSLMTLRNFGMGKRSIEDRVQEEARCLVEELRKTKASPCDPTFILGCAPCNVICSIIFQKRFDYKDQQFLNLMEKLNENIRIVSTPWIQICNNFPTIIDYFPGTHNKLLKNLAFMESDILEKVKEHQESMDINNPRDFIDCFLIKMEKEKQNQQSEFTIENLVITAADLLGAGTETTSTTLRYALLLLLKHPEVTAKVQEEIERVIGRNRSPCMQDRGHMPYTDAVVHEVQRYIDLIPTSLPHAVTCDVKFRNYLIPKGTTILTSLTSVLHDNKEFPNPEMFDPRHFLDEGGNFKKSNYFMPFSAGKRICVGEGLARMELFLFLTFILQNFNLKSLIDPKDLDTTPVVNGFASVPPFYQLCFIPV
# Cytochrome P450 2C9, sequence (P11712 whole entry): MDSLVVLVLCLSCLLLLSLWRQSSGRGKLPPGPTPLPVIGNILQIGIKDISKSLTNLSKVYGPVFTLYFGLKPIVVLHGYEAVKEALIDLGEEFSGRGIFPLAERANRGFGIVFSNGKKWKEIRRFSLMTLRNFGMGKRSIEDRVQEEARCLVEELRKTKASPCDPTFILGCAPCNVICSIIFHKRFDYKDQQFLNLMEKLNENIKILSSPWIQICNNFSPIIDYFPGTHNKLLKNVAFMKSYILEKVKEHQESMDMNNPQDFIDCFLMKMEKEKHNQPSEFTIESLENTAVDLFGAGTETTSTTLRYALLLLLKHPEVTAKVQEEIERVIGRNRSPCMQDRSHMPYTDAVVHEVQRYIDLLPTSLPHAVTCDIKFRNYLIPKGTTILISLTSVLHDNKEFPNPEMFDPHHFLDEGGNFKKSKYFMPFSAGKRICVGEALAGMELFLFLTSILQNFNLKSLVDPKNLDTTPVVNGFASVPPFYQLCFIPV
# Cytochrome P450 3A4, sequence (P08684 whole entry): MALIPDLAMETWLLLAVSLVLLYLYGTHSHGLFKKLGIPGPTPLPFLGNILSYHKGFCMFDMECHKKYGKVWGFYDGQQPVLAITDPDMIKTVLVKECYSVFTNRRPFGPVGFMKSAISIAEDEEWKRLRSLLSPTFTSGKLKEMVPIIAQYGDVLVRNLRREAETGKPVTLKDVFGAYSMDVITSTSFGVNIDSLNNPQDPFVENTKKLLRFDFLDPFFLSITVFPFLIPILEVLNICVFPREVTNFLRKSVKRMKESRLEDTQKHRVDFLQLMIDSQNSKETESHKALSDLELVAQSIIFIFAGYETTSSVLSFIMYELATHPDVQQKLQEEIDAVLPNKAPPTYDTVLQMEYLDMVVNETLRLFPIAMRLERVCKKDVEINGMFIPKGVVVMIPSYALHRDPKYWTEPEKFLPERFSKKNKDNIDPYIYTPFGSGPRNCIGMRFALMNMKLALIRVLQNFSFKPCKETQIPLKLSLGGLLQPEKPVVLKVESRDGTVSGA
compound,measurement,setting,value
CCOC(=O)c1c(-c2ccccc2)nc2ccc(Cl)cn12,AC50,Cytochrome P450 2C9,15.8 µM (inconclusive)
CSc1nc(Cc2ccccc2)cc(=O)[nH]1,EC50,[1],> 195 µM (not active)
O=C(c1c(O)nc2cc(Cl)ccc2c1O)C1CC1,AC50,Cytochrome P450 3A4,0.00316 µM (inconclusive)
CN(CCc1ccccn1)c1ccc2c(c1)Cc1ccccc1-2,AC50,Cytochrome P450 2C9,7.94 µM (inconclusive)
COc1ccc(Cl)cc1C(=O)NNC(=S)NC(=O)c1cc(-c2ccccc2)nc2ccccc12,EC50,[2],1.31 µM (active)
same,EC50,Streptokinase A,> 150 µM (not active)
same,EC50,Streptococcus,> 150 µM (inconclusive)
COC(=O)c1ccc(NC(=O)c2cc3sccc3n2C)cc1,AC50,Cytochrome P450 2C9,10 µM (inconclusive)
CCCCNC(=O)c1onc(CSc2cccc(Cl)c2)c1C(=O)O,EC50,[1],> 195 µM (not active)
Fc1ccccc1N=C(S)Nc1ccc(CN2CCOCC2)cc1,EC50,[1],68.4 µM (active)
N#Cc1c(N)n(-c2ccccc2N)c2nc3ccccc3nc12,EC50,[1],11.2 µM (active)
COc1ccc(Cl)cc1C(=O)NNC(=S)NC(=O)c1ccc(F)c(F)c1,EC50,[2],0.217 µM (active)
same,EC50,Streptococcus,1.37 µM (active)
CC(=O)c1cc(C#N)c(Oc2cccc(C(F)(F)F)c2)nc1C,AC50,Cytochrome P450 2C9,25.1 µM (inconclusive)
COC(=O)[C@H]1C[C@@H]1[C@H](NC(=O)c1cnccn1)c1ccccc1,AC50,Cytochrome P450 3A4,7.94 µM (inconclusive)
O=C(O)c1cc(-c2ccc(-c3ccc(-c4cc(C(=O)O)c5cc(Cl)ccc5n4)cc3)cc2)nc2ccc(Cl)cc12,AC50,Cytochrome P450 2C9,3.16 µM (inconclusive)
O=C(NCC1CCCO1)C(c1cccnc1)N(C(=O)Cc1cccs1)c1cccnc1 (stereo unspecified),AC50,Cytochrome P450 2C19; read-out: AC50,31.6 µM (inconclusive)
Cc1cc(NC2CCCC2)n2nc(C)c(-c3ccccc3)c2n1,EC50,[3],3.4 µM (active)
same,EC50,[4],> 60 µM (not active)
Cc1cc(C)cc(NS(=O)(=O)c2ccc(NC(=S)NC(=O)c3cccs3)cc2)c1,EC50,[2],4.5 µM (active)
same,EC50,Streptokinase A,11.7 µM (active)
same,EC50,Streptococcus,50.1 µM (active)
CC[C@@]1(c2ccc(N)cc2)CCC(=O)NC1=O,AC50,Cytochrome P450 3A4,12.6 µM (inconclusive) and 10 µM (inconclusive)
Nc1ccccc1SCC(=O)Nc1ccc2c(c1)OCCO2,EC50,[1],> 195 µM (not active)
CCCC[C@@H]1CNC(=O)C(=O)N1CCc1cccc2ccccc12,EC50,[1],> 195 µM (not active)
Cc1ccc(SCCCn2cncn2)cc1,EC50,[1],> 195 µM (not active)
CC(C)(C)NC(=O)C1CC(=O)OC12CCOC(C)(C)C2 (stereo unspecified),EC50,[1],> 195 µM (not active)
COC(=O)[C@H]1C[C@@H]1[C@H](NC(=O)c1ccccc1)c1ccccc1,AC50,Cytochrome P450 2C9,39.8 µM (inconclusive)
CCn1c(SCC(=O)Nc2sc3c(c2C#N)CCCC3)nnc1-c1ccco1,EC50,[3],1.89 µM (active)
same,EC50,[4],> 60 µM (inconclusive)
Cc1cccc(C(=O)NC2CCN(C(=O)Nc3ccc(F)cc3)CC2)c1,EC50,[1],32.7 µM (active)
C[C@H](CCC(=O)NN)[C@@H]1CC[C@@H]2[C@H]3CC[C@H]4C[C@@H](O)CC[C@@]4(C)[C@@H]3CC[C@]21C,AC50,Cytochrome P450 2C19; read-out: AC50,3.16 µM (inconclusive)
Cc1cc(OCC(=O)OC(C)C)c2c3c(c(=O)oc2c1)CCCC3,AC50,Cytochrome P450 3A4,28.2 µM (inconclusive)
COc1cccc(Nc2ncc3nc(-c4ccc(Cl)cc4)c(=O)n(C[C@H]4CCCO4)c3n2)c1,AC50,Cytochrome P450 3A4,15.8 µM (inconclusive)
Cc1nn(Cc2ccccc2)c(C)c1NC(=O)c1noc2c1CCc1ccccc1-2,EC50,[1],> 195 µM (not active)
Brc1ccc(C2C3=C(Nc4ncnn42)c2ccccc2OC3c2ccncc2)cc1 (stereo unspecified),EC50,[2],22.4 µM (active)
same,EC50,Streptokinase A,> 150 µM (not active)
same,EC50,[3],4.12 µM (active)
same,EC50,[4],> 60 µM (not active)
same,EC50,Streptococcus,21.5 µM (active)
CC(C)N1CCN(Cc2ccc3nsnc3c2)CC1CCO (stereo unspecified),EC50,[1],> 195 µM (not active)
Oc1ccccc1C1CCCCC1c1ccccc1 (stereo unspecified),EC50,[2],3.83 µM (active)
same,EC50,Streptokinase A,12.7 µM (active)
same,EC50,Streptococcus,50.4 µM (active)
COc1ccc(-c2oc(NC(=O)CSc3nc[nH]n3)c(C#N)c2-c2ccc(OC)cc2)cc1,EC50,[2],2.37 µM (active)
same,EC50,Streptokinase A,1.08 µM (active)
same,EC50,Streptococcus,16 µM (active)
Cc1ccc(S(=O)(=O)n2c3ccccc3c3nnc(C(=O)c4ccccc4)nc32)cc1,AC50,Cytochrome P450 2C19; read-out: AC50,0.0126 µM (inconclusive)
same,AC50,Cytochrome P450 2C9,3.16 µM (inconclusive)
COc1cccc(-c2cncnc2NC2CCNCC2)c1,AC50,Cytochrome P450 2C19,inconclusive
CCCNC(=O)OC[C@@H]1O[C@H](CCO/N=C(\C)CCN2CCc3nc(-c4ccccc4)c(-c4ccccc4)cc3C2)C=C[C@@H]1Oc1ccc(OC)cc1,AC50,Cytochrome P450 2C19; read-out: AC50,0.316 µM (inconclusive)
Cc1ccsc1C(=O)C1CCCN(Cc2ccc(-n3cccn3)cc2)C1 (stereo unspecified),EC50,[3],0.201 µM (active)
same,EC50,[4],> 60 µM (inconclusive)
COc1ccccc1NC(=O)c1ccc(N2CC3CC(C2)c2cccc(=O)n2C3)c(NC(=O)c2ccncc2)c1 (stereo unspecified),EC50,[1],> 195 µM (not active)
CN1CCN(c2ccc(S(=O)(=O)N3CCCCC3)cc2[N+](=O)[O-])CC1,EC50,[3],0.81 µM (active)
same,EC50,[4],> 60 µM (not active)
O=C(c1ccc2c(c1)OCO2)C1CCCN(Cc2cccn2-c2cccnc2)C1 (stereo unspecified),EC50,[3],3.29 µM (active)
same,EC50,[4],> 60 µM (not active)
O=C(Nc1ccccc1Cc1ccccc1)c1ccncc1,EC50,[3],0.802 µM (active)
same,EC50,[4],> 60 µM (not active)
Cc1ccccc1OCCC(=O)OCC(=O)N1c2ccccc2NC(=O)C1(C)C,EC50,[1],> 195 µM (not active)
CS(=O)(=O)c1cccc(NC(=O)c2ccc(Cl)c(Cl)c2)c1,EC50,[3],3.1 µM (active)
same,EC50,[4],> 30 µM (not active)
COCCn1c(C(=O)N(C)C)cc2c1C[C@H]1CN(C(=O)c3ccccc3)[C@@](Cc3ccc(F)cc3)(C(=O)OC)[C@@H]21,AC50,Cytochrome P450 2C19; read-out: AC50,39.8 µM (inconclusive)
same,AC50,Cytochrome P450 2C9,25.1 µM (inconclusive)
COc1ncc2nc(-c3cc(F)cc(F)c3)c(=O)n(CCC#N)c2n1,AC50,Cytochrome P450 3A4,20 µM (inconclusive)
COc1cc(OC)cc(C(=O)N[C@H](C(=O)OCC(=O)N2CCc3ccccc32)C(C)C)c1,EC50,[1],> 195 µM (not active)
CCCCCCN1N=C(C)C(C(=O)c2ccc(Cl)cc2)C1=O (stereo unspecified),EC50,[2],2.44 µM (active)
same,EC50,Streptokinase A,> 150 µM (not active)
same,EC50,Streptococcus,29.5 µM (active)
CCOC(=O)c1ccc(NC(=O)c2[nH]cnc2C(=O)N[C@@H](Cc2ccccc2)C(=O)OC(C)(C)C)cc1,EC50,[2],5.26 µM (active)
same,EC50,Streptokinase A,> 150 µM (not active)
same,EC50,Streptococcus,44.9 µM (active)
COc1ccc(-c2[nH]ncc2N=Nc2cc(C)cc(C)c2)cc1,EC50,[2],23.1 µM (active)
same,EC50,Streptokinase A,> 150 µM (not active)
same,EC50,Streptococcus,> 150 µM (not active)
O=C(CNCCc1ccc(F)cc1)Nc1cc(F)ccc1F,EC50,[1],> 195 µM (not active)
CC(OC(=O)CN1C(=O)NC2(CCCC2)C1=O)C(=O)c1ccccc1 (stereo unspecified),EC50,[1],> 195 µM (not active)
Cn1cccc1C(=O)N1CCC2(CCN(Cc3ccc(C#N)cc3)CC2)CC1,AC50,Cytochrome P450 2C19; read-out: AC50,0.2 µM (inconclusive)
CC(=O)c1c(-c2ccc(Cl)cc2Cl)noc1C,EC50,[1],> 195 µM (not active)
CCC1CC(CSc2nc[nH]n2)OC1=O (stereo unspecified),AC50,Cytochrome P450 2C9,25.1 µM (inconclusive)
CCOC(=O)c1c(-c2ccc(OC)cc2)csc1NC=C1C(=O)CCCC1=O,EC50,[2],66 µM (active)
same,EC50,Streptokinase A,> 150 µM (not active)
same,EC50,Streptococcus,32.7 µM (active)
Cc1c(C#N)c(/N=C/N(C)C)c(C(=O)c2ccc(Br)cc2)n1-c1ccc(Cl)cc1,EC50,[3],2.8 µM (active)
same,EC50,[4],> 60 µM (inconclusive)
Cc1nn(-c2ccccc2)c(C)c1/C=N/NC(=O)c1cc(C23CC4CC(CC(C4)C2)C3)[nH]n1,EC50,[2],5.31 µM (active)
same,EC50,Streptokinase A,10.3 µM (active)
same,EC50,Streptococcus,46.2 µM (active)
Oc1ccccc1/N=C/c1c(O)ccc2oc3c(c12)CCCC3,EC50,[2],7.61 µM (active)
same,EC50,Streptokinase A,> 150 µM (not active)
same,EC50,Streptococcus,10.6 µM (active)
CCO/C(O)=C1\C(C)=Nc2sc(C(=O)c3ccc(Br)cc3)c(N)c2C1c1ccc(C(=O)OC)cc1 (stereo unspecified),EC50,[3],1.09 µM (active)
same,EC50,[4],15.8 µM (active)
COc1ccc(Cl)cc1Nc1nc(-c2cccnc2)cs1,EC50,[3],3.22 µM (active)
same,EC50,[4],14 µM (active)

# From ChEMBL document CHEMBL1201862, “PubChem BioAssay data set” (2004)
